Data from patent US12383527B2, “Methods for treating triple negative breast cancer using salvianolic acid B” (HOWARD UNIVERSITY, priority 2018, dated 2025).

Assays:
[1] = system: proliferating cell nuclear antigen (PCNA); experiment: Immunohistochemical staining of PCNA in MDA tumor xenografts; format: in vivo, athymic nude mice; conditions: Sal-B 80 mg/kg three times per week; versus untreated; P<0.05
Experimental: (§1) Human tumor xenografts in athymic nude mice. […] The animal protocol was approved by the Howard University Animal Care and Use Committee. Four-week-old female athymic nude mice (Nu/Nu) were obtained from Harlan Sprague Dawley (Indianapolis, IN). All mice were provided the Harlan Teklad #2018 Global 18% protein rodent diet and water ad libitum. Mice were housed in temperature-controlled rooms (74±2° F.) with a 12-hour alternating light-dark cycle. MDA cells (3×10^6/50 μL/spot) were subcutaneously injected into the both sides of lower back of mice using a 27-gauge needle. […]
(§2) Immunohistochemical staining was performed as described previously (Hao Y, et al., “Enforced expression of miR-101 inhibits prostate cancer cell growth by modulating the COX-2 pathway in vivo,” Cancer Prev Res (Phila), 2011; 4: 1073-1083). […] For the quantification, ten high-magnification (40×) fields were randomly selected from each slide of tumors and the positive cells were counted. The protein expression was expressed as the average number of positive cells per high magnification field.

[2] = system: glucosylceramide synthase (GCS); experiment: Western blot of GCS expression in MDA and MCF-7 cells; format: cell-based, human; conditions: for GCS protein level (normalized to β-actin): Sal-B 50 μM; for GCS expression, further effect versus 50 μM: Sal-B 100 μM
Experimental: The immunohistochemical results were consistent with those from Western blotting (FIG. 7, panel A). Western blot analysis was used to determine the expression of apoptosis-related proteins Bcl-XL, survivin, caspase-3 and caspase-8 (FIG. 7, panel A). β-actin was used as an internal control for Western blotting. The MCD-7 and MDA cells were treated with Sal-B (50 μM and 100 μM) and doxorubicin (0.1 μM and 1 μM), respectively, for 24 hours. Proteins were extracted from the cells with RIPA lysis buffer (Santa Cruz Biotechnology, Santa Cruz, CA) and the protein concentrations were quantified with Bio-Rad protein quantification kit. Whole-cell proteins were separated on 8% SDS-polyacrylamide gel, transferred to the polyvinylidene difluoride membrane (Bio-Rad), and then probed with the indicated primary antibodies overnight at 4° C. Washed blots were then incubated with horseradish peroxidase-conjugated anti-rabbit, anti-mouse, or anti-goat antibody (Santa Cruz Biotechnology), respectively, for one hour at room temperature. Blots were developed and visualized with ECL detection system (Bio-Rad).
To understand the mechanism underlying increased ceramide accumulation, the expression levels of GCS and GM3 synthase were measured by Western blot analysis in MDA and MCF-7 cells treated by various concentrations of Sal-B (FIG. 8). The amount of protein expression was normalized by the expression of the internal control β-actin. […] Sal-B was found effective to down-regulate GCS and GM3 synthase expression in cancer cells.

survivin = experiment: Immunohistochemical staining of survivin in MDA tumor xenografts; format: in vivo, athymic nude mice; conditions: Sal-B 80 mg/kg three times per week; versus untreated group
Experimental: as §1, §2

O=C(/C=C/c1ccc(O)c2c1[C@H](C(=O)O[C@H](Cc1ccc(O)c(O)c1)C(=O)O)[C@@H](c1ccc(O)c(O)c1)O2)O[C@H](Cc1ccc(O)c(O)c1)C(=O)O [Sal-B, Salvianolic acid B] was tested, and the “PCNA levels in tumor xenografts” value [1] was “higher in untreated MDA tumor xenografts”, the “GCS protein level (normalized to β-actin)” value ([2]; MCF-7 cells) was “sufficient to inhibit GCS protein level” and the “GCS expression, further effect versus 50 μM” value ([2]; MCF-7 cells) was “No further inhibitory effect”. The “GCS protein level (normalized to β-actin)” value ([2]; MDA cells) was “sufficient to inhibit GCS protein level”, the “GCS expression, further effect versus 50 μM” value ([2]; MDA cells) was “No further inhibitory effect” and the “survivin level in tumors” value (survivin) was “decreasing”.
